pEC50, pIC50: −log10 of the molar value.
Tests used:
[1] = Therapeutic index expressed as the ratio of CC50 and EC50; type: cell-based; settings: human, CCRF-CEM cells; read-out: Therapeutic index
CCRF-CEM [2] = experiment: Anti HIV-1 activity expressed as the concentration required to protect of HIV-1 infected CEM cells; type: functional, cell-based; settings: Homo sapiens
CCRF-CEM [3] = experiment: Maximum protection of CEM cells by the compound against HIV-1 at a dose of 20 uM; type: functional, Homo sapiens
[4] = biological target: T1, Human immunodeficiency virus type 1 integrase (Human immunodeficiency virus 1, UniProt Q7ZJM1)
T1 sequence (Q7ZJM1 whole entry): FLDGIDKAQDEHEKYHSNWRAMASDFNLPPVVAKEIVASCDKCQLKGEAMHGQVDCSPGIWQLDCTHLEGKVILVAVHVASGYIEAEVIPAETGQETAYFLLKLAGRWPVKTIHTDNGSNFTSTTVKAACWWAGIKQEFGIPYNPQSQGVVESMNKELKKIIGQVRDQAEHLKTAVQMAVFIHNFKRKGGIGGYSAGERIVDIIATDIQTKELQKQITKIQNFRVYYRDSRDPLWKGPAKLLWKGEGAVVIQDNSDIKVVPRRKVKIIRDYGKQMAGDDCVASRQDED
Description: Inhibition of HIV-1 integrase catalytic activity

[5] = biological target: T1, Human immunodeficiency virus type 1 integrase; remark: listed apart in the source
CCRF-CEM [6] = experiment: Cytotoxic concentration against uninfected CEM cells; type: functional; settings: Homo sapiens
CCRF-CEM [7] = experiment: Maximum protection of CEM cells by the compound against HIV-1 at a dose of 63 uM; type: functional, Homo sapiens
CCRF-CEM [8] = experiment: Maximum protection of CEM cells by the compound against HIV-1 at a dose of 0.2 uM; type: functional, Homo sapiens
[9] = Therapeutic index expressed as the ratio of CC50 and EC50; No therapeutic benifit reached; type: cell-based; settings: human, ccrf-cem
CCRF-CEM [10] = experiment: Maximum protection of CEM cells by the compound against HIV-1 at a dose of 2 uM; No protection; type: functional, cell-based; settings: Homo sapiens
CCRF-CEM [11] = experiment: Maximum protection of CEM cells by the compound against HIV-1; No protection; type: functional, cell-based; settings: Homo sapiens
[12] = biological target: T1, Human immunodeficiency virus type 1 integrase; experiment: Evaluated for inhibition of HIV-1 integrase catalytic activity in terms of inhibition of 3'-processing; type: functional
CCRF-CEM [13] = experiment: Maximum protection of CEM cells by the compound against HIV-1 at a dose of 2 uM; type: functional, Homo sapiens

O=C(/C=C(\O)c1cccc(Cc2ccccc2F)c1)C(=O)NCCCCCCNC(=O)C(=O)/C=C(\O)c1cccc(Cc2ccccc2F)c1
selectivity ratio [1]: 8 | pEC50 (CCRF-CEM [2]): 4.80 | Max protection (CCRF-CEM [3]): 86% | pIC50 [4]: 5.57 | pIC50 [5]: 4.49 | CC50 (CCRF-CEM [6]): 124 µM

O=C(O)C(=O)/C=C(\O)c1cccc(C(c2cccc(/C(O)=C/C(=O)C(=O)O)c2)c2ccccc2F)c1 (configuration not stated)
pEC50 (CCRF-CEM [2]): 4.77 | Max protection (CCRF-CEM [3]): 88% | CC50 (CCRF-CEM [6]): 81 µM

O=C(O)C(=O)/C=C(\O)c1cccc(OCc2ccccc2COc2cccc(/C(O)=C/C(=O)C(=O)O)c2)c1
pEC50 (CCRF-CEM [2]): 4.41 | Max protection (CCRF-CEM [7]): 97% | CC50 (CCRF-CEM [6]): > 200 µM

O=C(O)C(=O)/C=C(\O)c1cccc(Cc2ccccc2F)c1
selectivity ratio [1]: 3110 | pEC50 (CCRF-CEM [2]): 7.70 | pIC50 [4]: 6.40 | Max protection (CCRF-CEM [8]): 98% | pIC50 [5]: 5.60 | CC50 (CCRF-CEM [6]): 62 µM

O=C(/C=C(\O)c1cccc(Cc2ccccc2F)c1)C(=O)NCCNC(=O)C(=O)/C=C(\O)c1cccc(Cc2ccccc2F)c1
Therapeutic index [9]: No therapeutic benefit | pEC50 (CCRF-CEM [2]): < 5.30 | Max protection (CCRF-CEM [10]): No protection | pIC50 [4]: 6.70 | pIC50 [5]: 5.24 | CC50 (CCRF-CEM [6]): 5 µM

O=C(/C=C(\O)c1cccc(Cc2ccccc2F)c1)C(=O)NCCCNC(=O)C(=O)/C=C(\O)c1cccc(Cc2ccccc2F)c1
Therapeutic index [9]: No therapeutic benefit | pEC50 (CCRF-CEM [2]): < 5.05 | Max protection (CCRF-CEM [11]): No protection | pIC50 [4]: 6.70 | pIC50 [5]: 5.28 | CC50 (CCRF-CEM [6]): 9 µM

O=C(O)C(=O)/C=C(\O)c1cccc(OCc2ccc(COc3cccc(/C(O)=C/C(=O)C(=O)O)c3)cc2)c1
Therapeutic index [9]: No therapeutic benefit | pEC50 (CCRF-CEM [2]): < 3.70 | Max protection (CCRF-CEM [11]): No protection | pIC50 [4]: 5.72 | pIC50 [5]: 5.77 | CC50 (CCRF-CEM [6]): > 200 µM

O=C(O)C(=O)/C=C(\O)c1cccc(OCc2cccc(COc3cccc(/C(O)=C/C(=O)C(=O)O)c3)c2)c1
pEC50 (CCRF-CEM [2]): < 3.70 | Max protection (CCRF-CEM [11]): No protection | pIC50 [5]: 5.14 | CC50 (CCRF-CEM [6]): > 200 µM

O=C(/C=C(\O)c1cccc(Cc2ccccc2F)c1)C(=O)NCCCCCNC(=O)C(=O)/C=C(\O)c1cccc(Cc2ccccc2F)c1
Therapeutic index [9]: No therapeutic benefit | pEC50 (CCRF-CEM [2]): < 4.92 | Max protection (CCRF-CEM [11]): No protection | pIC50 [4]: 6.15 | pIC50 [5]: 5.32 | CC50 (CCRF-CEM [6]): 12 µM

O=C(/C=C(\O)c1cccc(Cc2ccccc2F)c1)C(=O)N1CCN(C(=O)C(=O)/C=C(\O)c2cccc(Cc3ccccc3F)c2)CC1
selectivity ratio [1]: 14 | pEC50 (CCRF-CEM [2]): 6.10 | pIC50 [12]: 5.60 | pIC50 [4]: 6.52 | CC50 (CCRF-CEM [6]): 11 µM | Max protection (CCRF-CEM [13]): 100%
